Values of other authors as cited in patent US10736322B2, “Aqueous concentrated herbicidal compositions containing glyphosate salts and dicamba salts” (priority 2012, dated 2020).

Settings: 25° C.

With `O=C(O)CNCP(=O)(O)O` [Glyphosate acid, N-(phosphonomethyl)glycine] as the molecule, how does the solubility in water read?
The solubility in water was 1.16 wt. %.
